Tested on: TNCB-induced atopic dermatitis in mice ears
Test: TNCB-induced atopic dermatitis in mice: ear thickness, ear weight, ear appearance, histopathology
Format: in vivo, BALB/c mice
Details: for Pathological slice average inflammation degree (average severity of the pathological changes): mice ears, HE staining, after three weeks of daily test substance, scale Grade 1 minimal to Grade 5 extremely severe
Procedure: The animals used in the experiments were 8-week-old BALB/c mice (purchased from LESCO Biotech), the body weight were 25 to 28 g and were quarantined by veterinarians for one week before entering the breeding room. The animals were divided into 9 groups, 3 in each group, a total of 27 mices. The temperature of the breeding room was set at 21±2° C., the humidity was set at 30 to 70%, and the environment was set for 12/12 hour light-dark cycle with unlimited supply of food and water.
In the animal experiments, 2-chloro-1,3,5-trinitrobezene (TNCB) was used to induce atopic dermatitis in mice and acetone was used as the solvent to prepare 1% of TNCB which was applied to mice ears (once every 2 days, the volume was 4 ml/kg) one week prior to testings. […] In addition, for those groups that were simultaneously provided with test ointments and test oral substances, the oral dose was 60 mg/kg and the volume was 10 ml/kg. When TNCB and the test substance were given on the same day, in order to reduce the effect of interactions between each other, TNCB and test substance were given at least 1 hour apart. The mangosteen paste of 0.5%, 1%, 2%, 3%, 5% respectively contained 20 mg/kg, 40 mg/kg, 80 mg/kg, 120 mg/kg and 200 mg/kg of extract of mangosteen rind.
Changes in body weight and ear thickness of the mice were monitored twice weekly. Blood of all experimental animals were collected before TNCB induction, after the induction and before the test substance was given and when being sacrificed. After the blood was centrifuged at 3000 rpm for 30 minutes at 4° C., serum samples were obtained and stored.
All animals were sacrificed at the end of the third week after the test substance was given. Mice ears were removed, photographed and stored in 10% of formalin solution for histopathological observation. HE staining was used for the pathological observation (conducted by the National Laboratory Animal Center).
Data are expressed as means±standard deviation […] and Student's t-test was used to compare the differences among treatment groups. Asterisks indicate significant differences, *p<0.05; **p<0.01; ***p<0.001.

[1] = inner rind versus outer rind extract experiment (4%)

**Q.** `CC(=O)OCC(=O)[C@@]1(O)CC[C@H]2[C@@H]3CCC4=CC(=O)CC[C@]4(C)[C@H]3[C@@H](O)C[C@@]21C` [1% Hydrocortisone Acetate, hydrocortisone acetate] was tested. Which “Inhibition rate, ear thickness” value (degree of swelling of mice ears, compared with the model group, mangosteen paste dose series) did it give?
**A.** 52.7%

**Q.** And the “Ear appearance after being sacrificed” value (ears removed at end of experiment (FIG. 4))?
**A.** intact ear contour

**Q.** What about the “Inhibition rate, ear weight” value (ears weighed after sacrifice, compared with the model group, mangosteen paste dose series) of the same compound?
**A.** 82.4%

**Q.** What about the “Inhibition rate (%), ear thickness” value [1] of the same compound?
**A.** 50.75%

**Q.** What about the “Inhibition rate (%), ear weight” value [1] of the same compound?
**A.** 68.91%

**Q.** What about the “Pathological slice average inflammation degree (average severity of the pathological changes)” value of the same compound?
**A.** 3 ± 0 Grade

**Q.** And the “Pathological slice average inflammation degree (average severity of the pathological changes)” value (listed as 1% hydrocortisone acetate)?
**A.** 3 Grade
